Tests used:
ACAT enzyme [1] = conditions: known drug; cited from earlier work
[2] = tested on: blood platelet aggregation; conditions: known drug; cited from earlier work
membranes = conditions: known drug; cited from earlier work
ACAT enzyme [3] = test: ACAT Inhibition Assay (inhibition of cholesterol esterification in cultured Fu5AH rat hepatoma cells); type: cell-based; set-up: key to Activity: Active: Compounds with ACAT inhibiting activity equal to, or greater than, that of chloropromazine are declared active; conditions: for % Inhib. of Chol. Esterf.: Fu5AH cells, 18 hours; for Activity: compared with chlorpromazine
Text: A standard in vitro test system designed to identify compounds capable of inhibitory the ACAT enzyme in cultured Fu5AH rat hepatoma cells which was used to test the compounds of this invention, among others, is described hereinbelow.
Since the ACAT enzyme in Fu5AH cells is similar if not identical to the ACAT enzyme in arterial tissue in valuable, warm-blooded animals, including humans, the Fu5AH cell test represents a more efficient, simplified and economical means of screening for ACAT inhibitors than similar assays which depend upon the use of arterial tissue and arterial subfractions as the source of the ACAT enzyme.
For our in vitro test the Fu5AH rat hepatoma cell line was selected as our source of the ACAT enzyme since this particular cell line mimicked important characteristics of human and valuable animal arterial cells during the development of atherosclerosis. The Fu5AH cells accumulate cholesterol extensively when incubated with hyperlipemic plasma proteins; more importantly, Fu5HA cells accumulated the cholesterol predominantly as the esterified form through the action of the ACAT enzyme. See Rothblat, G. H., "Cholesteryl Ester Metabolism in Tissue Culture Cell. I. Accumulation in Fu5AH Rat Hepatoma Cells", Lipids, 9, (1974) page 526.
The Fu5AH cells used in our in vitro assay were first acquired from G. H. Rothblat, supra, of the Medical College of Pa.
The Fu5AH rat hepatoma cell-line was derived from the Reuber H-35 rat hepatoma. (See Reuber, M.D., "A Transplantable Bilesecreting Hepatocellular Carcinoa in the Rat", J. Natl., Cancer Inst., 26 (1961), page 891. The cell-line is maintained in Eagle's Minimal Essential Medium (MEM, GiBCO) supplemented with 5% bovine fetal calf serum. Incubation is at 36° C. in an atmosphere of 5% CO2 in air (Hotpack, Model 351922). Cells from stock cultures, grown to confluency in 25 cm^2 flasks (Falcon) containing 10 ml. medium, are detached with 0.25% trypsin in 1% ethylenediaminetetraacetic acid (EDTA) (Gibco), diluted 1:10 with MEM and mixed by agitation through a pipette which serves to disrupt the cellular clumps. Stock cultures are replenished with fresh medium at 3 to 4 day intervals.
One ml. aliquots of the diluted stock suspension described above are then transferred to 60 mm. dishes (Falcon) containing four ml. MEM and the seeded cells are allowed to grow to confluence (three days). At confluence, the medium is removed by aspiration and the cells are washed once with MEM. Five ml. of MEM supplemented with 5% hyperlipemic rabbit serum (HRS) (HRS is obtained from male New Zealane rabbits fed Purina Chow® rabbit feed supplemented with 1% cholesterol and 3% peanut oil (w/w/w/) for two to three weeks. Pooled sera from two or more rabbits are filtered through a 0.45 mμ filter (Nalgene) and stored frozen in convenient aliquots until used) and containing 1μ Ci/ml of ^3 H-cholesterol are then added to the dishes as the experimental (assay) medium. The experimental medium is labeled with 1,2-^3 H(N)-cholesterol (sp. act. approx. 40-60 Ci/mol, New Zealand Nuclear Corp.) prior to its addition to the confluent cultures and is prepared as follows. Five ml. of HRS is diluted with approximately 20 ml of MEM and the mixture is labeled by the addition of 100 μCi ^3 H-cholesterol dissolved in 100 μl absolute ethyl alcohol. The resulting mixture is then incubated for four hours at 36° C. to permit equilibration of the labeled cholesterol with the serum lipoprotein-cholesterol. After the equilibration period, the mixture is diluted to 100 ml. with MEM and used as the labeled assay medium. Following the addition of the labeled medium to the dishes, dimethylsulfoxide solutions of the test substances and the positive standard chloropromazine HCl (1 mg/ml) are added to the cultures in volumes of 25, 50, […]; control cultures receive equivalent volumes of dimethylsufoxide alone. […]

[4] = tested on: Moderately Hypercholesterolemic Quail; test: In vivo testing in moderately hypercholesterolemic quail (serum LDL cholesterol); set-up: species or system Japanese quail; conditions: compound in diet, two weeks
Text: Male SEA Japanese quail, approximately four to six weeks of age, were reared at Miles Quail Farm, Gobles, Mich. from a colony of animals originally derived at The Upjohn Company. Birds were randomly distributed into ten groups of ten quail each. They were house individually in ten cage units and fed a commercial diet (Purina Game Bird Layena, Ralston Purina Co., St. Louis, Mo.) mixed with various amounts of cholesterol with and without 1% peanut oil. Compounds were mixed into 2.4 kg of the diet using a feed mixer (Hobard A-200) for twenty minutes. Control groups received normal diet. In one series of experiments birds were fed 0.5% cholesterol/1% peanut oil plus colestipol hydrochloride. After two weeks on the diets, each bird was bled from the right jugular vein and serum samples were obtained after low speed centrifugation. Food intake was determined for each group by subtracting the weight of diet remaining at the end of the experiment from the weight of the starting diet.
Beta- and alpha-lipoproteins were isolated from individual serum samples using PEG-8000 and glycerine buffer, pH 9 (9). Three hundred microliters of serum were mixed with 300 microliters of solution. A (20 grams of PEG-8000 plus 100 ml of glycerine buffer, pH 9) using a Micromedic automatic pipet. Samples were allowed to stand at room temperature for ten minutes and then were centrifuged for twenty minutes at 2000× g at 4° C. The beta-lipoprotein pellet was dissolved in 300 microliters of solution B (10 ml Triton X-100 plus 1000 ml Milli Q water). Cholesterol, triglycerides and total protein in alpha- and beta-lipoproteins were measured using the Deman Autoanalyzer, Model AU 500 (Cooper Biomedical Inc.) and Worthington Demand Enzymatic reagents.
All data were statistically analyzed using a one-way classification design. Values were transformed to logarithms to achieve more homogenous within-group variances. The mean response for each diet and for the effect was compared with the mean observed in the control animals by the LSD test. Treated/control ratios of antilogs of the log means are also presented.

SMILES | ACAT enzyme inhibition (in words) (ACAT enzyme [1]) | blood platelet aggregation inhibition (in words) [2] | change of membrane fluidity (in words) (membranes) | % Inhib. of Chol. Esterf. (ACAT enzyme [3]; 5.0 ug/ml) [%] | Activity (ACAT enzyme [3]; 5.0 ug/ml) | % Inhib. of Chol. Esterf. (ACAT enzyme [3]; 10.0 ug/ml) [%] | Activity (ACAT enzyme [3]; 10.0 ug/ml) | % Inhib. of Chol. Esterf. (ACAT enzyme [3]; 15.0 ug/ml) [%] | Activity (ACAT enzyme [3]; 15.0 ug/ml) | Percent Change in Serum LDL Cholesterol From Control [4] [%] | potency for ACAT enzyme inhibition (in words) (ACAT enzyme [3]; among the compounds of Table I)
CN(C)CCCN1c2ccccc2Sc2ccc(Cl)cc21 [chlorpromazine] | ACAT enzyme inhibitor | blood platelet aggregation inhibition properties | change the fluidity of membranes |  |  |  |  |  |  |  | 
O=C1c2c(c(=O)n3nc(-c4ccccc4)cc3n2Cc2ccccc2)CN1C1CCCCC1 [Example 2, 6-Cyclohexyl-6,7-dihydro-2-phenyl-4-(phenylmethyl)-4H-pyrazolo[1,5-a]pyrrolo[3,4-d]pyrimidine-5,8-dione] |  |  |  | 60.1 | Active | 87.7 | Active | 93.6 | Active | -50 | 
C=CCCCCn1c2c(c(=O)n3nc(-c4ccccc4)cc13)CN(C1CCCCC1)C2=O [Example 1, 6-Cyclohexyl-4-(5-hexenyl)-6,7-dihydro-2-phenyl-4H-pyrazolo[1,5-a]pyrrolo[3,4-d]pyrimidine-5,8-dione] |  |  |  | 68.6 | Active | 93.2 | Active | 96.1 | Active | -42 | 
O=C(Cn1c2c(c(=O)n3nc(-c4ccccc4)cc13)CN(C1CCCCC1)C2=O)c1ccccc1 [Example 4, 4-(Benzoylmethyl)-6-cyclohexyl-6,7-dihydro-2-phenyl-4H-pyrazolo[1,5-a]pyrrolo-[3,4-d]pyrimidine-5,8-dione] |  |  |  | 88.6 | Active | 92.2 | Active | 91.9 | Active | -59 | most potent compound

Source: US5132424A, “Pyrazolo-pyrrolo-pyrimidine-diones” (The Upjohn Company, priority 1991, dated 1992)
